Test results taken from article PMC12592502, “Unraveling the mechanisms behind the enhanced efficacy of β-lactam-based sideromycins” (Communications Biology, 2025).

Columns and labels:
Experiment in all cases: Membrane PBP binding assay, competition with Bocillin FL
PBP5 [1] = biological target: PBP5 (Escherichia coli, UniProt P0AEB2); conditions: E. coli MC4100 membranes
Protocol: (§1) Membrane extracts containing PBPs were obtained as described above. Briefly, all species were grown in 1 L of TSB until the OD600 reached 0.9. The washed pellet was incubated with lysozyme (400 μg/mL), DNase (10 μg/mL) RNase(10 μg/mL) and anti-protease cocktail (200 mg/20 mL). Lysis was done with a French press (20,000 psi) and membrane protein were pelleted by ultracentrifugation steps (100,000 × g). The pellet was suspended in a minimal volume (300–500 μL) of KP 0.05 M buffer at pH 7. The protein concentration in the membrane preparations was determined with the Micro BCA TM Protein Assay Kit (Thermo Fisher Scientific, Rockford, IL) using bovine serum albumin as a standard.
(§2) The PBP binding assay was done as described previously[36],[56],[57]. For each antibiotic concentration tested, a quantity of 25 to 40 μg of membrane preparation was used as the source of PBPs, depending on the species. […]
(§3) To be able to visualize labeled PBPs after electrophoresis, gels were rinsed in water and fixed in a solution of 50% methanol and 7% acetic acid for 30 min. […] To obtain quantifiable data, the software Quantity One 1D analysis was used (version 4.6.6; Bio-Rad Laboratories, Richmond, CA). The volume (intensity × constant area) of each PBP was measured. […] The PBP profiles were confirmed, and the PBP numbering were determined using published data and individual molecular weights. […]

PBP5 [2] = biological target: PBP5 (Klebsiella pneumoniae, UniProt A6T693); conditions: K. pneumoniae ATCC 13883 membranes
Chain of PBP5 (Klebsiella pneumoniae, UniProt A6T693) (A6T693 entry or part of it): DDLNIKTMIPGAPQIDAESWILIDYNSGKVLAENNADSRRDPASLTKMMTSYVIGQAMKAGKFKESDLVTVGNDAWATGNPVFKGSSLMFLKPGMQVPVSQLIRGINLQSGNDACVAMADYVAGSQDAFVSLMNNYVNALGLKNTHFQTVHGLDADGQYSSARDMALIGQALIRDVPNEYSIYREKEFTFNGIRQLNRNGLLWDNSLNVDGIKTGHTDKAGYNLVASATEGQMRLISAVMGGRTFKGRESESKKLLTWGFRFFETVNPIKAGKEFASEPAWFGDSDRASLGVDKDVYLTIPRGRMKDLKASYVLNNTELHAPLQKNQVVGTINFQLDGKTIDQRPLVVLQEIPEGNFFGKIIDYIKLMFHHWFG
Protocol: as §1, §2, §3

PBP1a = PBP1a (Acinetobacter baumannii, UniProt A0ABX6CK30); conditions: A. baumannii ATCC 19606 membranes
Chain of PBP1a (A0ABX6CK30 entry or part of it): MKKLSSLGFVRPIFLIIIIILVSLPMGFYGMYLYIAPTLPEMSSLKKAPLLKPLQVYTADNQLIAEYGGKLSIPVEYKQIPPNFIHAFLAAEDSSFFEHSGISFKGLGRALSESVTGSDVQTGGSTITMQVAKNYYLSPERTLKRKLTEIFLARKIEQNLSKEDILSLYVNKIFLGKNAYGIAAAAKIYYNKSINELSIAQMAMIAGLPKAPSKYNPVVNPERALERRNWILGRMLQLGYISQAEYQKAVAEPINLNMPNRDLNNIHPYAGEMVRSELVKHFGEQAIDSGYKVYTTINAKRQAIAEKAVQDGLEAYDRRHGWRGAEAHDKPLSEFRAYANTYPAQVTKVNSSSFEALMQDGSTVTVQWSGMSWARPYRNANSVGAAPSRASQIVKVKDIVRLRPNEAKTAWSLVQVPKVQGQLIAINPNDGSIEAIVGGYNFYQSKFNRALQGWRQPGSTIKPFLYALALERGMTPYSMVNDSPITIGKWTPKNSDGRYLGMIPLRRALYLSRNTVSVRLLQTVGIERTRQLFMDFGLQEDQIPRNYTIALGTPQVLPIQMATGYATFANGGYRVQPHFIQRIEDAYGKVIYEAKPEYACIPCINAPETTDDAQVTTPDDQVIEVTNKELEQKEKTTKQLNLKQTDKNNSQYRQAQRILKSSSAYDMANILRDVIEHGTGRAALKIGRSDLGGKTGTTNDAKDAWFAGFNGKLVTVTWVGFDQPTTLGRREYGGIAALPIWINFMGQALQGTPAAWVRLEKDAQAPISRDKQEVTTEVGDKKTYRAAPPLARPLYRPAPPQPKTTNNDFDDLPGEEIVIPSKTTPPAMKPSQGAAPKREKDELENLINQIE
Protocol: as §1
(§4) The PBP binding assay was done as described previously[36],[56],[57]. For each antibiotic concentration tested, a quantity of 25 to 40 μg of membrane preparation was used as the source of PBPs, depending on the species. For the purified PaPBP3, 150 ng was used in the assay. First, increasing concentrations of the test antibiotic was added to the membrane or purified PaPBP3 preparations and incubated for 10 min at 30 °C. The reporter molecule Bocillin FL was then added at 12.5 μM for the membrane PBPs preparations and at 500 nM for the pure PaPBP3 samples for an additional 20 min at 30 °C. All reactions were stopped with the addition of the Laemmli-loading buffer (Bio-Rad) containing fresh β-mercaptoethanol (Sigma). All reactions were then heated at 100°C for 3 min before migration on SDS-polyacrylamide discontinuous gel system (7.5% stacking and 10% separating). Control samples without Bocillin FL were also included to highlight autofluorescent proteins that are not PBPs.
(§5) To be able to visualize labeled PBPs after electrophoresis, gels were rinsed in water and fixed in a solution of 50% methanol and 7% acetic acid for 30 min. The fluorescent images of gels were obtained with the Typhoon FLA 9500 instrument (GE-Healthcare Bio-Sciences Inc., Baie-d’Urfé, QC, CA) using a 473 nm excitation wavelength. To obtain quantifiable data, the software Quantity One 1D analysis was used (version 4.6.6; Bio-Rad Laboratories, Richmond, CA). The volume (intensity × constant area) of each PBP was measured. […] All IC50 data were obtained from at least two independent PBP binding assays using two different sets of compound concentrations using a linear regression. The PBP profiles were confirmed, and the PBP numbering were determined using published data and individual molecular weights. […] For example, amdinocillin (Sigma) was used for PBP2 identification. […] The IC50 for PBP 2 of P. aeruginosa was measured by including the SDS-PAGE comigrating autofluorescent protein in the background, as done previously.

PBP1b [3] = biological target: PBP1b (Acinetobacter baumannii, UniProt A0ABX6CHI7); conditions: A. baumannii ATCC 19606 membranes
Protocol: as §1, §4, §5

PBP1b [4] = biological target: PBP1b (Pseudomonas aeruginosa, UniProt G3XD31); conditions: P. aeruginosa ATCC 27853 membranes
Chain of PBP1b (Pseudomonas aeruginosa, UniProt G3XD31) (G3XD31 entry or part of it): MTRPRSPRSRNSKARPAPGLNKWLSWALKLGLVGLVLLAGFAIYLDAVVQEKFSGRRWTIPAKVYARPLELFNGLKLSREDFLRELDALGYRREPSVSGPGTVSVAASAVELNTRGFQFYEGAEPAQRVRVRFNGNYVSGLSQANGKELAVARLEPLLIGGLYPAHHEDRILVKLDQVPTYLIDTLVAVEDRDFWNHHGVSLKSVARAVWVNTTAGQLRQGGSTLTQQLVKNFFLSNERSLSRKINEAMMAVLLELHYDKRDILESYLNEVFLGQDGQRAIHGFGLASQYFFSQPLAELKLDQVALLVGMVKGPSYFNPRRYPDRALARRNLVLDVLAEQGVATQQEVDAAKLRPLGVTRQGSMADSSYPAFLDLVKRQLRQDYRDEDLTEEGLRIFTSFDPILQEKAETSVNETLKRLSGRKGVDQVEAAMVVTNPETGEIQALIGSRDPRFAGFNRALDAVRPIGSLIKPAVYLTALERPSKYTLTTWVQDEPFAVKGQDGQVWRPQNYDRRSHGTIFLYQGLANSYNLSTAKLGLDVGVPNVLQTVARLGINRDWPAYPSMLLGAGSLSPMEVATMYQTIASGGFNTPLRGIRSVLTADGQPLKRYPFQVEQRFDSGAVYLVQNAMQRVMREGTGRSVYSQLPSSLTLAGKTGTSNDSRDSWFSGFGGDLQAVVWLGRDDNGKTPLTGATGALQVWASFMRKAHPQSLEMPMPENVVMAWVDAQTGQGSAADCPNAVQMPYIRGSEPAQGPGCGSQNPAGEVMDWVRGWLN
Protocol: as §1, §4, §5

PBP3 [5] = biological target: PBP3 (Acinetobacter baumannii, UniProt A0ABX6CK25); conditions: A. baumannii ATCC 19606 membranes
Chain of PBP3 (Acinetobacter baumannii, UniProt A0ABX6CK25) (A0ABX6CK25 1-610): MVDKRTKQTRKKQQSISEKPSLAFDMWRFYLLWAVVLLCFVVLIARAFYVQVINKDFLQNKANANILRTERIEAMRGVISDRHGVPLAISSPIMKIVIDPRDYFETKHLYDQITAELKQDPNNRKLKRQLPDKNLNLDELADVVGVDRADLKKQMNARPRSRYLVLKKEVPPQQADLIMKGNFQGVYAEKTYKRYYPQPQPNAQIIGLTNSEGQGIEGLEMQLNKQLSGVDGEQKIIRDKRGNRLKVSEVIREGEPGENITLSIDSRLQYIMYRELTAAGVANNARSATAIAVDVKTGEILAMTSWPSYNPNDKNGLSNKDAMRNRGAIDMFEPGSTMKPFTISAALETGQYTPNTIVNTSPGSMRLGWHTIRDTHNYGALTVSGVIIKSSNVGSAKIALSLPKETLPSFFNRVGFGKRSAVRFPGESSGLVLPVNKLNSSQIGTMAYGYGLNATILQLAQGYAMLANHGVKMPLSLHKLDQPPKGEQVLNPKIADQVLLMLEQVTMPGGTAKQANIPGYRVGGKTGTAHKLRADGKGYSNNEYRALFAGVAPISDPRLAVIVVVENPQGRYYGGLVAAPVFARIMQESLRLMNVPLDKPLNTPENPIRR
Protocol: as §1, §4, §5

PBP3 [6] = biological target: PBP3 (Klebsiella pneumoniae, UniProt A0A0H3GN85); conditions: K. pneumoniae ATCC 13883 membranes
Chain of PBP3 (Klebsiella pneumoniae, UniProt A0A0H3GN85) (A0A0H3GN85 entry or part of it): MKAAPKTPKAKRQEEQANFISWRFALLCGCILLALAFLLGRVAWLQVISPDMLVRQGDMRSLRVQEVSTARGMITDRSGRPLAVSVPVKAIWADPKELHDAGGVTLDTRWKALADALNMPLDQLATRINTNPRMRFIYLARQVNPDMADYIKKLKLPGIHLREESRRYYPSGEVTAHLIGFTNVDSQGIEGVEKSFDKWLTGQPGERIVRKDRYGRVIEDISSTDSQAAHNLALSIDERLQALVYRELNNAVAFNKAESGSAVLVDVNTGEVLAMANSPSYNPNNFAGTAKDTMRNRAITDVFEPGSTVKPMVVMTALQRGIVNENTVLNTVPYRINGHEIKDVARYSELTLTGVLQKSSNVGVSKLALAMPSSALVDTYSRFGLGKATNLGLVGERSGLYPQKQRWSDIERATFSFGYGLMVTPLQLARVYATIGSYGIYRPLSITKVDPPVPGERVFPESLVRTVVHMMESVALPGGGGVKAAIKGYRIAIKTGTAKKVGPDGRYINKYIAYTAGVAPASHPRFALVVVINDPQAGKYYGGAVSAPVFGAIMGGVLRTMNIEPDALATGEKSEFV
Protocol: as §1, §4, §5

PBP4 = PBP4 (Klebsiella pneumoniae, UniProt A0ACD7U7I2); conditions: K. pneumoniae ATCC 13883 membranes
Protocol: as §1, §4, §5

PBP5 [7] = biological target: PBP5 (Pseudomonas aeruginosa, UniProt G3XD74); conditions: P. aeruginosa ATCC 27853 membranes
Chain of PBP5 (Pseudomonas aeruginosa, UniProt G3XD74) (G3XD74 entry or part of it): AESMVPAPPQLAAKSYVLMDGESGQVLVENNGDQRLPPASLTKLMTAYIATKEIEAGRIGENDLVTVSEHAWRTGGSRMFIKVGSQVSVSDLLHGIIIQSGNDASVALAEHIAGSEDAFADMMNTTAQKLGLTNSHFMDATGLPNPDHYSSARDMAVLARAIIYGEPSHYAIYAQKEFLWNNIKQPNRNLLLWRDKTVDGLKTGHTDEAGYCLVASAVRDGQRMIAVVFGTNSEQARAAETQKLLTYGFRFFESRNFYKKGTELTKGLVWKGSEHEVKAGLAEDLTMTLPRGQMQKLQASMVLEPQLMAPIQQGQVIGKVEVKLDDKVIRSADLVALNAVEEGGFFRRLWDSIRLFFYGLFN
Protocol: as §1, §4, §5

Chain of PBP5 (Escherichia coli, UniProt P0AEB2) (P0AEB2 30-403): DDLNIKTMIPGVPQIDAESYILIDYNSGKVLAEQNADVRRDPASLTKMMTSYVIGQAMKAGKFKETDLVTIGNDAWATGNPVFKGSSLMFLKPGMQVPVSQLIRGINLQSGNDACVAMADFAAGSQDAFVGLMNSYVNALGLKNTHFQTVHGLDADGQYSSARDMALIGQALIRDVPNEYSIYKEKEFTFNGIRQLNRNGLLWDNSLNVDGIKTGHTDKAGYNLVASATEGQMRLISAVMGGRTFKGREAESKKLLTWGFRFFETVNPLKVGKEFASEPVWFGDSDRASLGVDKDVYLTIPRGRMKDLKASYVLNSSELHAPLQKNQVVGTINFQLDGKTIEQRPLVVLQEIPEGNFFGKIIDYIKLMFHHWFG

N[C@@H](C(=O)N[C@@H]1C(=O)N2C(C(=O)O)=C(Cl)CC[C@H]12)c1ccccc1 [LOR, loracarbef, reference compound]
IC50 (PBP5 [1]): > 50 µM
IC50 (PBP5 [2]): > 50 µM
IC50 (PBP1a): > 50 µM
IC50 (PBP1b [3]): > 50 µM
IC50 (PBP1b [4]): 1.8 ± 0.5 µM
IC50 (PBP3 [5]): 7.8 ± 0.8 µM
IC50 (PBP3 [6]): 4.1 ± 2.4 µM
IC50 (PBP4): 1.03 ± 0.72 µM
IC50 (PBP5 [7]): > 50 µM
